Laboratory results from patent US9447042B2, “Endoparasite control agent” (THE UNIVERSITY OF TOKYO, priority 2011, dated 2016).
Where two headings read alike, the source gives them in different places.

Key:
[1] = target: T1, Ascaris suum succinate-ubiquinone reductase (mitochondrial complex II) (Ascaris suum, UniProt O44074+P92506+P92507); experiment: In vitro inhibitory activity on Ascaris suum succinate-ubiquinone reductase (mitochondrial complex II); type: biochemical; details: for Selectivity B/A: porcine IC50 (B) / Ascaris suum IC50 (A)
T1 construct: from tissue; host or cells: mitochondria from adult Ascaris suum muscle
T1 sequence (O44074 22-282): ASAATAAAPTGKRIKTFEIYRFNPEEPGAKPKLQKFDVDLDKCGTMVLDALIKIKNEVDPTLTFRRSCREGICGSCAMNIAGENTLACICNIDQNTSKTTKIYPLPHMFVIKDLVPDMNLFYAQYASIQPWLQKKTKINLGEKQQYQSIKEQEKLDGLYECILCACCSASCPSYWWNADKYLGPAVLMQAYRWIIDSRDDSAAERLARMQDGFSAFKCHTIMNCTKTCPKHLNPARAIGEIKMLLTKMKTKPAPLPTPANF
T1 sequence (P92506 32-188): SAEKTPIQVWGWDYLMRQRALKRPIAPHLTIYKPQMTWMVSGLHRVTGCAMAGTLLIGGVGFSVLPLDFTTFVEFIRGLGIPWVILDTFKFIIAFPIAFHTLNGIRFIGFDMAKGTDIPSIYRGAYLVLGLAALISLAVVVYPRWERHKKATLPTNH
T1 sequence (P92507 26-156): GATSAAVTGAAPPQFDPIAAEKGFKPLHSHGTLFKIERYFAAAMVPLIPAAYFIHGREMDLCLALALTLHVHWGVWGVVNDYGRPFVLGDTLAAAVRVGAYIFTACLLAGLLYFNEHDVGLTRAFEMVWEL
T1 sequence (Q33862 19-645 partner): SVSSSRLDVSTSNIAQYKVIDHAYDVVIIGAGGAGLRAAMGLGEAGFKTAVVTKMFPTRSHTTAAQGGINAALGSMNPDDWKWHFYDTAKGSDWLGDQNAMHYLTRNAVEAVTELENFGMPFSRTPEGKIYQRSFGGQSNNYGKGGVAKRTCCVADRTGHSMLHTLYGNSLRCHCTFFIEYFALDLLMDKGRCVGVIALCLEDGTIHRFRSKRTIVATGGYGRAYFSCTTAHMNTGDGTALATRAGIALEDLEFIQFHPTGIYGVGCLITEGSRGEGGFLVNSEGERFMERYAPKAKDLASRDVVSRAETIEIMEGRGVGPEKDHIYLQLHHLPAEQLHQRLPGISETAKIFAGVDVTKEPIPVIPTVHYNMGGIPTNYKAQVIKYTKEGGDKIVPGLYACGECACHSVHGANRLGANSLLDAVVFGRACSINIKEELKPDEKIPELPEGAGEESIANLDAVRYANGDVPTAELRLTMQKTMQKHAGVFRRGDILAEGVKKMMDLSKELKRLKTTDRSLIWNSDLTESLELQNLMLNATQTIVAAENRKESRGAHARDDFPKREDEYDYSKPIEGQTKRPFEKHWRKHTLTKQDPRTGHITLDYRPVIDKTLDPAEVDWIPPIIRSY
Experimental: In Vitro Measurement of Inhibitory Activity on Ascaris suum Succinate-Ubiquinone Reductase (Mitochondrial Complex II)
(§1) To a solution containing 50 mM potassium phosphate (pH 7.4) and 0.1% (w/v) sucrose monolaurate, an electron acceptor ubiquinone-2 (UQ2) was added at a final concentration of 60 μM, and the mixture was allowed to stand at 25° C. for 20 minutes. To this, potassium cyanide (final concentration: 2 mM) and mitochondria prepared from adult Ascaris suum muscle were added, and thorough mixing was done. To aliquots of the mixture, an inhibitor to be tested was added at various concentrations, and the mixtures were allowed to stand at 25° C. for 3 minutes. The enzymatic reaction was initiated by addition of potassium succinate (final concentration: 10 mM).
(§2) In the table, “-” indicates “not tested,” and “Ascaris suum IC50 value (A)” indicates an IC50 value (50% inhibitory concentration) for inhibition of succinate-ubiquinone reductase (mitochondrial complex II) of Ascaris suum. From the extent of inhibition of this respiratory enzyme, the parasite control activity can be estimated. “Porcine mitochondria IC50 value (B)” indicates an IC50 value for inhibition of succinate-ubiquinone reductase (mitochondrial complex II) of the host pig. From the extent of inhibition of this respiratory enzyme, the influence on the host can be estimated. A greater selectivity index B/A indicates a higher safety for the host.

[2] = target: T2, Porcine succinate-ubiquinone reductase (mitochondrial complex II) (Sus scrofa, UniProt A5GZW8+D0VWV4+Q007T0); experiment: In vitro inhibitory activity on porcine succinate-ubiquinone reductase (mitochondrial complex II); type: biochemical, pig
T2 construct: from tissue; host or cells: mitochondria from porcine heart muscle
T2 sequence (Q007T0 29-280): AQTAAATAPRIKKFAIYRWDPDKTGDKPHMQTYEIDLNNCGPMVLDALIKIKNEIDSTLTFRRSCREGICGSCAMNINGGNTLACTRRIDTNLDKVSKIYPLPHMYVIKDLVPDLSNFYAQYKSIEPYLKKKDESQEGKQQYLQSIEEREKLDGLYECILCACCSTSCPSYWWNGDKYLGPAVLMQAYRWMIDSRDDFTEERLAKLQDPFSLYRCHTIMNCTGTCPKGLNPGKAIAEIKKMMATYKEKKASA
T2 sequence (D0VWV4 30-169): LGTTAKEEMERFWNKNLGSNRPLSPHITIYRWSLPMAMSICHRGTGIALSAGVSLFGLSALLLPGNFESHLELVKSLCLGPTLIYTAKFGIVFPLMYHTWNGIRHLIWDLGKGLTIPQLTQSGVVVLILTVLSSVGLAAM
T2 sequence (A5GZW8 57-159 limits assumed): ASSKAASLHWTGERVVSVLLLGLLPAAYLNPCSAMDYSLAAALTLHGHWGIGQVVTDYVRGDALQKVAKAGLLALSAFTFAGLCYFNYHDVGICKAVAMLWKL
T2 sequence (Q0QF01 43-664 partner): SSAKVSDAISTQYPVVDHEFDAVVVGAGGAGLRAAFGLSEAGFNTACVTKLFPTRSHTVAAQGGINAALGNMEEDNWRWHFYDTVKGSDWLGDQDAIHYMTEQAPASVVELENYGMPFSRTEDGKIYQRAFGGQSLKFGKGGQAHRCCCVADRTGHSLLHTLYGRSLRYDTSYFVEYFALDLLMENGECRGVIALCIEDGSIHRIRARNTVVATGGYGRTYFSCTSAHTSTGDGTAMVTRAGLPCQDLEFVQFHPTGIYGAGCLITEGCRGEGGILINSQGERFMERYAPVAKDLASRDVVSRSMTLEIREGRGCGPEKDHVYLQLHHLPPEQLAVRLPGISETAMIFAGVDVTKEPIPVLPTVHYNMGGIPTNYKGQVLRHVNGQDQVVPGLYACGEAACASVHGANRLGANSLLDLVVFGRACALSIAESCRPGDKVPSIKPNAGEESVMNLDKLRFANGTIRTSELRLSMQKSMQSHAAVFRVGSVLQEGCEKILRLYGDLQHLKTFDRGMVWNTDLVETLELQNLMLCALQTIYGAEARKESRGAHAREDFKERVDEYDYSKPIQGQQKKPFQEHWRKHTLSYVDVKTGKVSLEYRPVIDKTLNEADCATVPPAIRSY
Experimental: In Vitro Measurement of Inhibitory Activity on Porcine Succinate-Ubiquinone Reductase (Mitochondrial Complex II)
as §1, with “porcine heart” for “adult Ascaris suum”
as §2

Haemonchus contortus = experiment: Larval migration inhibition assay (LMIA) on Haemonchus contortus; type: in vivo; details: third-stage larvae
Experimental: In Vivo Activity on Haemonchus contortus
The test was conducted according to the larval migration inhibition assay (LMIA: Demeler et al., 2010). A larval suspension was prepared so as to contain 100 to 120 third-stage larvae of Haemonchus contortus per 20 μL, and then 20 μL of the larval suspension was added to each well on a breeding plate to which compound solutions adjusted to predetermined concentrations were previously added at […] each. The breeding plate was maintained for breeding at 28° C. for 24 hours. Meanwhile, to a plate for larval migration observation, 400 μL of a 1.5% agar solution was added and left to stand until coagulation. Then, the larvae were allowed to migrate through a sieve from the breeding plate to the plate for larval migration observation, and the plates were maintained for breeding at 28° C. for another 24 hours. The larvae which had migrated, and the larvae which had not migrated were counted, the percentage of migration inhibition was calculated, and the activity was graded based on the following criterion. In the table, “-” indicates “not tested.”
Percentage of Migration Inhibition

[3] = at 90 μM, porcine heart muscle mitochondria
[4] = mitochondria from porcine heart muscle, read-out: Porcine mitochondria IC50 value (B)
[5] = mitochondria from adult Ascaris suum muscle, read-out: Ascaris suum IC50 value (A)
[6] = at 9 μM, porcine heart muscle mitochondria

SMILES | IC50 [1] [nM] | Selectivity B/A [1] | Porcine mitochondria inhibition at 90 μM [2, 3] | IC50 [1, 5] [nM] | other results
Cc1ccc(CCNC(=O)c2ccccc2C(F)(F)F)c(C)c1 [Compound 1-27] | 1.69 | >53300 | no inhibition at 90 μM |  | 
O=C(NCCc1ncc(C(F)(F)F)cc1Cl)c1ccccc1C(F)(F)F [Compound 3-7] | 1.6 | 56250 |  |  | IC50 [2]: 90000 nM; Percentage of migration inhibition (grade) (Haemonchus contortus; 0.1 ppm): C (10 to 39%); Percentage of migration inhibition (grade) (Haemonchus contortus; 1 ppm): C (10 to 39%); Percentage of migration inhibition (grade) (Haemonchus contortus; 10 ppm): C (10 to 39%); Percentage of migration inhibition (grade) (Haemonchus contortus; 100 ppm): B (40 to 69%)
O=C(NCCc1ccccc1)c1ccccc1C(F)(F)F [Compound 1-111] | 13.1 | >6870 | no inhibition at 90 μM |  | 
O=C(NCCCc1ccc(Cl)cc1Cl)c1ccccc1C(F)(F)F [Compound 4-7] | 1.78 | 57870 |  |  | IC50 [2, 4]: 103000 nM; Percentage of migration inhibition (grade) (Haemonchus contortus; 0.1 ppm): C (10 to 39%); Percentage of migration inhibition (grade) (Haemonchus contortus; 1 ppm): C (10 to 39%); Percentage of migration inhibition (grade) (Haemonchus contortus; 10 ppm): C (10 to 39%); Percentage of migration inhibition (grade) (Haemonchus contortus; 100 ppm): B (40 to 69%)
O=C(NCCCSc1ccc(Cl)cc1Cl)c1ccccc1C(F)(F)F [Compound 4-6] |  | >1079 |  | 8.34 | Porcine mitochondria inhibition at 9 μM [2, 6]: no inhibition at 9 μM
CC(Cc1ccc(Cl)cc1Cl)NC(=O)c1ccccc1C(F)(F)F (stereo not drawn) [Compound 1-32] | 2.15 | >4190 |  |  | Porcine mitochondria inhibition at 9 μM [2, 6]: no inhibition at 9 μM; Percentage of migration inhibition (grade) (Haemonchus contortus; 0.1 ppm): C (10 to 39%); Percentage of migration inhibition (grade) (Haemonchus contortus; 1 ppm): C (10 to 39%); Percentage of migration inhibition (grade) (Haemonchus contortus; 10 ppm): B (40 to 69%)
CC(CCc1ccc(Cl)cc1Cl)NC(=O)c1ccccc1C(F)(F)F (stereo not drawn) [Compound 4-8] | 2.61 | >3448 |  |  | inhibition at 9 µM [2, 6]: 5%
Cc1ccc(OCCNC(=O)c2ccccc2C(F)(F)F)c(C)c1 [Compound 4-3] | 1.98 |  |  |  | 
O=C(NCCc1ccc(Cl)cc1)c1ccccc1C(F)(F)F [Compound 1-3] | 1.21 | >27000 | no inhibition at 90 μM |  | 
CC(Cc1ccc(Cl)c(Cl)c1)NC(=O)c1ccccc1C(F)(F)F (stereo not drawn) [Compound 1-81] | 4.8 | >18800 |  |  | inhibition at 90 µM [2, 3]: 10%
CC(Cc1ccc(F)cc1F)NC(=O)c1ccccc1C(F)(F)F (stereo not drawn) [Compound 1-64] | 9 | >9150 |  |  | Porcine mitochondria inhibition at 9 μM [2, 6]: no inhibition at 9 μM
CC(C)(CNC(=O)c1ccccc1C(F)(F)F)c1ccc(Cl)cc1Cl [Compound 1-112] | 1.5 | >60000 | no inhibition at 90 μM |  | 
O=C(NCCc1c(Cl)cc(C(F)(F)F)cc1Cl)c1ccccc1C(F)(F)F [Compound 1-110] | 4.07 | >2460 |  |  | Porcine mitochondria inhibition at 10 μM ([2]; at 10 μM, porcine heart muscle mitochondria): no inhibition at 10 μM
O=C(NCCCOc1ccc(Cl)cc1Cl)c1ccccc1C(F)(F)F [Compound 4-4] |  | >10770 | 16% at 90 μM | 8.36 | 
CC(C)(NC(=O)c1ccccc1C(F)(F)F)c1ccccc1 [Compound 2-3] |  | >709 | no inhibition at 90 μM | 127 | 
Cc1cc(CNC(=O)c2ccccc2C(F)(F)F)ccc1-c1ccc(OC(F)(F)F)cc1 [Compound 2-5] |  | >2350 |  | 3.83 | Porcine mitochondria inhibition at 9 μM [2, 6]: no inhibition at 9 μM
O=C(NC(c1ccc(Cl)cc1)C1CC1)c1ccccc1C(F)(F)F (stereo not drawn) [Compound 2-4] |  | >1280 | no inhibition at 90 μM | 70.5 | 
CC(C)(C)c1ccc(CNC(=O)c2ccccc2C(F)(F)F)cc1 [Compound 2-1] |  | 20295 |  | 5.47 | IC50 [2, 4]: 111000 nM; Percentage of migration inhibition (grade) (Haemonchus contortus; 0.1 ppm): C (10 to 39%); Percentage of migration inhibition (grade) (Haemonchus contortus; 1 ppm): B (40 to 69%)
CC(COc1ccc(Cl)cc1Cl)NC(=O)c1ccccc1C(F)(F)F (stereo not drawn) [Compound 4-2] | 5.15 |  |  |  | 
O=C(NCc1ccc(Cl)cc1Cl)c1ccccc1C(F)(F)F [Compound 2-6] |  | >3180 | 10% at 90 μM | 28.3 | Percentage of migration inhibition (grade) (Haemonchus contortus; 0.1 ppm): C (10 to 39%); Percentage of migration inhibition (grade) (Haemonchus contortus; 1 ppm): C (10 to 39%); Percentage of migration inhibition (grade) (Haemonchus contortus; 10 ppm): C (10 to 39%)
CC(C)(Cc1ccc(Cl)c(Cl)c1)NC(=O)c1ccccc1C(F)(F)F [Compound 1-88] | 12 |  |  |  | 
O=C(NCCOc1ccc(Cl)cc1Cl)c1ccccc1C(F)(F)F [Compound 4-1] | 3.44 |  |  |  | Percentage of migration inhibition (grade) (Haemonchus contortus; 0.1 ppm): C (10 to 39%); Percentage of migration inhibition (grade) (Haemonchus contortus; 1 ppm): C (10 to 39%); Percentage of migration inhibition (grade) (Haemonchus contortus; 10 ppm): C (10 to 39%)
CC(NC(=O)c1ccccc1C(F)(F)F)c1ccc(Cl)cc1 (stereo not drawn) [Compound 2-8] |  | >2360 | no inhibition at 90 μM | 38.2 | 
CC(NC(=O)c1ccccc1C(F)(F)F)c1ccc(Cl)cc1Cl (stereo not drawn) [Compound 2-7] |  | >6430 | no inhibition at 90 μM | 14 | 
O=C(NCCc1ccc(Cl)cc1Cl)c1ccccc1C(F)(F)F [Compound 1-16] | 3.34 | >74400 | no inhibition at 90 μM |  | Percentage of migration inhibition (grade) (Haemonchus contortus; 0.1 ppm): C (10 to 39%); Percentage of migration inhibition (grade) (Haemonchus contortus; 1 ppm): C (10 to 39%); Percentage of migration inhibition (grade) (Haemonchus contortus; 10 ppm): C (10 to 39%); Percentage of migration inhibition (grade) (Haemonchus contortus; 100 ppm): B (40 to 69%)
Cc1ccc(SCCCNC(=O)c2ccccc2C(F)(F)F)c(C)c1 [Compound 4-5] |  | >14830 | 11% at 90 μM | 6.07 | 
